Format in all cases: cell-based
Experiment [1] has as its target T1, ΔF508-CFTR (Homo sapiens, UniProt P13569, DEL508-508).
T1 construct: host or cells: CFBE41o-, doxycycline-inducible
The experiment is described as follows: CFTR cell surface levels using HRP-tagged ΔF508-CFTR expressing CFBE cells, in the presence of a co-corrector. As to conditions: HRP-tagged ΔF508-CFTR CFBE cells, in the presence of 3 μM co-corrector; for EC50: read-out: EC50. The gist of the method: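 Chemiluminescent read-out of surface HRP (15 min, dark) after PBS washes. Activity is normalized as 100×(sample−DMSO)/(3 μM co-corrector alone−DMSO).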

For experiment [2], the target named is T1, ΔF508-CFTR. Description: CFTR cell surface levels using HRP-tagged ΔF508-CFTR expressing CFBE cells, intrinsic corrector capacity. Set-up: % Activation: concentration or dose not given beside the values. As to conditions: HRP-tagged ΔF508-CFTR expressing CFBE41o- cells, compound alone (intrinsic corrector capacity), 20 hours at 33° C.; for EC50: read-out: EC50. A digest of the protocol:
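Read-out: chemiluminescent HRP activity of ECL4-HRP-tagged ΔF508-CFTR at the cell surface, 15 min substrate in dark. Normalized as 100×(sample−DMSO)/(positive control−DMSO).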

Experiment [3] has as its target T2, CFTR ΔF508 (Homo sapiens, UniProt P13569, DEL508-508).
T2 construct: bronchial epithelial cells isolated from CF patients homozygous for the CFTR ΔF508 mutation; McGill University; Asterand; University of North Carolina hAEC-CF; host or cells: primary human bronchial epithelial cells from CF patients homozygous for ΔF508, differentiated at air-liquid interface
The experiment is described as follows: Chronic TECC assay, primary bronchial epithelial cells of CF patients homozygous for CFTR ΔF508 (corrector, co-corrector and potentiator). The following applies: chronic TECC, Ieq = calculations based on the maximum current; for EC50: read-out: EC50 (nM) (Ieq*); for % Activity at 1 μM (Ieq*): test compound at 1 μM. As to the method:
Primary Bronchial Epithelial Cells Protocol
The TECC (Tranepithelial Clamp Circuit, EP-design) assay measures the functionality of the cystic fibrosis Transmembrane Conductance regulator (CFTR) by measuring the short circuit current (Isc) generated over the basolateral and apical membrane of lung epithelial cells. In TECC the transepithelial potential PD and transepithelial resistance (Rt) are measured in an open circuit and transformed to Ieq using Ohm's law. 24 Wells can be measured simultaneously allowing a higher throughput compared to Ussing chambers.
For this purpose, bronchial epithelial cells isolated from CF patients homozygous for the CFTR ΔF508 mutation (hAEC-CF, Epithelix, Geneva, Switzerland; McGill University, Montreal, Qc; Asterand, Detroit, Mich.; University of North Carolina, Chapel Hill, N.C.) are plated on type IV collagen-coated Transwell® supports (Costar).
For electrophysiological recording of the “chronic” experiments, the human airway epithelia are mounted in the TECC heating plate for electrophysiological measurement and kept at 37° C. The epithelia are bathed in a NaCl-Ringer solution (120 mM NaCl, 25 mM NaHCO3, 1.2 mM CaCl2, 1.2 mM MgCl2, 0.8 mM KH2PO4, 0.8 mM K2HPO4, pH 7.4, 5 mM glucose) on both the basolateral and apical sides. Test compounds (corrector, co-corrector, 4-[(2R,4R)-4-({[1-(2,2-difluoro-1,3-benzodioxol-5-yl)cyclopropyl]carbonyl}amino)-7-(difluoromethoxy)-3,4-dihydro-2H-chromen-2-yl]benzoic acid, and potentiator, N-(3-carbamoyl-5,5,7,7-tetramethyl-4,7-dihydro-5H-thieno[2,3-c]pyran-2-yl)-1H-pyrazole-5-carboxamide), are re-added to the recording solution prior to measurement. […] Apical amiloride is used to inhibit the endogenous ENaC currents while forskolin is applied on both apical and basolateral side to stimulate CFTR. Measurements are done during a 20 minute timeframe with recordings every 2 minutes. The increase in Ieq is used as a measure for the increased CFTR activity, EC50 values can be generated by measuring impact of different concentrations of compound on Ieq on primary cells, for this purpose each transwell is treated with a different compound concentration. […] Raw data were normalized to percentage activity values using the equation: 100×(Sample−Negative control)/(Positive control−Negative Control).

In general, EC50 refers to the concentration that produces a half-maximal response.

T1 sequence (P13569 with tags, fused parts or gaps DEL508-508): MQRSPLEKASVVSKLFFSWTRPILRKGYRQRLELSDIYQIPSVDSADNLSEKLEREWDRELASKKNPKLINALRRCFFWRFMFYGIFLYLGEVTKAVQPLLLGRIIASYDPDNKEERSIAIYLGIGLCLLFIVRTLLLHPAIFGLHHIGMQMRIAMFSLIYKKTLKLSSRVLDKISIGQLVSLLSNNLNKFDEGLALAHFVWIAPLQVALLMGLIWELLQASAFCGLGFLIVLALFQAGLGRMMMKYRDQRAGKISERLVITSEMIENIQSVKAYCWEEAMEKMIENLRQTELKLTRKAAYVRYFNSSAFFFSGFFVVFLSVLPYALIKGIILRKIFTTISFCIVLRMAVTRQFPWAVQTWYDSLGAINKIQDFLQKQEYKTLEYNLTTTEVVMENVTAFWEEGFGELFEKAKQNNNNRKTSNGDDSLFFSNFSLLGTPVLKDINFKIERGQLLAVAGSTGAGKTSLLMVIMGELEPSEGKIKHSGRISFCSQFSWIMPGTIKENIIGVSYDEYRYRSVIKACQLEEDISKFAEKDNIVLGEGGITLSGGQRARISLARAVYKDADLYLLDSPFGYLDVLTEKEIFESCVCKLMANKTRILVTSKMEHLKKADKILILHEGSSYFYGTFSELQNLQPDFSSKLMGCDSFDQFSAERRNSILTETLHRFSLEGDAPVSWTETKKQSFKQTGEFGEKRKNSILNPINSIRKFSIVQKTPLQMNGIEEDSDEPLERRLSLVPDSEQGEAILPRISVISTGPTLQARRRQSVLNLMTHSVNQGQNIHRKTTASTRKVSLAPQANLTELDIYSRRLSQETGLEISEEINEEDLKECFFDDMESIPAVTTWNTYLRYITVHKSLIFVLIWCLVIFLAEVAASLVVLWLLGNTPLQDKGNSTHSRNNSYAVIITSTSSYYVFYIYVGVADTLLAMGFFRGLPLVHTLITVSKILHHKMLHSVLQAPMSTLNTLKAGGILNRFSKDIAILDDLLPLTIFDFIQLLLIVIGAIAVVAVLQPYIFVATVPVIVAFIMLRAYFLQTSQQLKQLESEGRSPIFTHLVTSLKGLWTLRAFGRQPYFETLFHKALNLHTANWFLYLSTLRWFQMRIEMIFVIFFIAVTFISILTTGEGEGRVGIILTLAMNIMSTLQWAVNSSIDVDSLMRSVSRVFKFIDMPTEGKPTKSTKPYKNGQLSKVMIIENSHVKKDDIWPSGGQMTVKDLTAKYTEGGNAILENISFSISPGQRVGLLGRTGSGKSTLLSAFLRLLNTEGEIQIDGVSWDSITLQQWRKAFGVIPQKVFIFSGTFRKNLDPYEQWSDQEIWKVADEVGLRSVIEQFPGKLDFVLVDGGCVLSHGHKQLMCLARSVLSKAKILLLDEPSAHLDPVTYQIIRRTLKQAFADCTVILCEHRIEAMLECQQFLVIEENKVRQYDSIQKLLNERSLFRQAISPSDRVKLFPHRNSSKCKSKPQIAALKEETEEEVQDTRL
T2 sequence (P13569 with tags, fused parts or gaps DEL508-508): as above

Regarding `COCCN(C)c1ccc(-c2cc(C(=O)NS(C)(=O)=O)nc3c2c(C(C)C)nn3-c2cccc(N3CCOCC3)c2)cn1` [Compound 86, N-(methanesulfonyl)-4-{6-[(2-methoxyethyl)(methyl)amino]pyridin-3-yl}-1-[3-(morpholin-4-yl)phenyl]-3-(propan-2-yl)-1H-pyrazolo[3,4-b]pyridine-6-carboxamide], in experiment [1], the “% Activation” value is on record as 489.56% and the EC50 was found to be 255 nM. Also, in experiment [2], the “% Activation” value was determined as 329.92% and the EC50 is 637 nM. For the same molecule, in experiment [3], the EC50 is 30 nM and the “% Activity at 1 μM (Ieq*)” value is listed as 210%.

For `CC(C)c1nn(-c2cccc(N3CCOCC3)c2)c2nc(C(=O)NS(C)(=O)=O)cc(-c3ccc(N(C)C4CCOCC4)nc3)c12` [Compound 87, N-(methanesulfonyl)-4-{6-[methyl(oxan-4-yl)amino]pyridin-3-yl}-1-[3-(morpholin-4-yl)phenyl]-3-(propan-2-yl)-1H-pyrazolo[3,4-b]pyridine-6-carboxamide], the “% Activation” value worked out at 623.62% in experiment [1] and 422.84% in experiment [2]. Also, the EC50 in experiment [1] was 456 nM; in experiment [2], 409 nM; in experiment [3], less than 30 nM. For the same molecule, the “% Activity at 1 μM (Ieq*)” value in experiment [3] was 150%.

With `CC(C)c1nn(-c2cccc(N(C)C)c2)c2nc(C(=O)NS(C)(=O)=O)cc(-c3cnc(N(C)C4CCOCC4)nc3)c12` [Compound 91, 1-[3-(dimethylamino)phenyl]-N-(methanesulfonyl)-4-{2-[methyl(oxan-4-yl)amino]pyrimidin-5-yl}-3-(propan-2-yl)-1H-pyrazolo[3,4-b]pyridine-6-carboxamide], the “% Activation” value turned out to be 619.45% in experiment [1] and 388.15% in experiment [2]. The EC50 in experiment [1] was 891 nM; in experiment [2], 382 nM; in experiment [3] it was less than 30 nM. In addition, the “% Activity at 1 μM (Ieq*)” value in experiment [3] is 250%.

Regarding `CC1CN(c2ccc(-c3cc(C(=O)NS(C)(=O)=O)nc4c3c(C(C)C)nn4C3CCCCC3)cn2)CC(C)O1` (stereo not drawn) [Compound 93, 1-cyclohexyl-4-[6-(2,6-dimethylmorpholin-4-yl)pyridin-3-yl]-N-(methanesulfonyl)-3-(propan-2-yl)-1H-pyrazolo[3,4-b]pyridine-6-carboxamide], in experiment [1], the “% Activation” value is 456.5% and the EC50 was 270 nM. Besides, in experiment [2], the “% Activation” value came to 224.23% and the EC50 stood at 501 nM. Also, in experiment [3], the EC50 was less than 30 nM and the “% Activity at 1 μM (Ieq*)” value was 220%.

Turning to `CC(C)c1nn(-c2cccc(N(C)C)c2)c2nc(C(=O)NS(C)(=O)=O)cc(-c3cnc(N4CCC(C#N)CC4)nc3)c12` [Compound 95, 4-[2-(4-cyanopiperidin-1-yl)pyrimidin-5-yl]-1-[3-(dimethylamino)phenyl]-N-(methanesulfonyl)-3-(propan-2-yl)-1H-pyrazolo[3,4-b]pyridine-6-carboxamide], in experiment [1], the “% Activation” value is 611.7% and the EC50 came to 649 nM. For the same molecule, in experiment [2], the “% Activation” value is 355.6% and the EC50 stood at 838 nM. Also, in experiment [3], the EC50 is 10 nM and the “% Activity at 1 μM (Ieq*)” value is 180%.

Take `CC(C)c1nn(-c2cccc(N(C)C)c2)c2nc(C(=O)NS(C)(=O)=O)cc(-c3ccc(N(C)C4CCOCC4)cc3)c12` [Compound 96, 1-[3-(dimethylamino)phenyl]-N-(methanesulfonyl)-4-{4-[methyl(oxan-4-yl)amino]phenyl}-3-(propan-2-yl)-1H-pyrazolo[3,4-b]pyridine-6-carboxamide]: the figures for the “% Activation” value in experiment [1] and in experiment [2] were 707.5% and 406.6%, respectively. In addition, the values for the 50% effective concentration (EC50) in experiment [1], in experiment [2] and in experiment [3] were 473 nM, 367 nM and less than 30 nM, respectively. For the same molecule, the “% Activity at 1 μM (Ieq*)” value in experiment [3] was 310%.

As for `CC(C)c1nn(-c2cccc(N3CCCC3)c2)c2nc(C(=O)NS(C)(=O)=O)cc(-c3ccc(N(C)C4CCOCC4)cc3)c12` [Compound 110, N-(methanesulfonyl)-4-{4-[methyl(oxan-4-yl)amino]phenyl}-3-(propan-2-yl)-1-[3-(pyrrolidin-1-yl)phenyl]-1H-pyrazolo[3,4-b]pyridine-6-carboxamide], the “% Activation” value turned out to be 665.7% in experiment [1] and 451.8% in experiment [2]. Besides, the results for the EC50 in experiment [1], in experiment [2] and in experiment [3] were 336 nM, 358 nM and less than 30 nM, respectively. For the same molecule, in experiment [3], the “% Activity at 1 μM (Ieq*)” value was 170%.

Regarding `CCS(=O)(=O)NC(=O)c1cc(-c2ccc(N3CCOCC3)cc2)c2c(C)nn(-c3ccc(F)cc3F)c2n1` [Compound 113, 1-(2,4-difluorophenyl)-N-(ethanesulfonyl)-3-methyl-4-[4-(morpholin-4-yl)phenyl]-1H-pyrazolo[3,4-b]pyridine-6-carboxamide], in experiment [1], the “% Activation” value turned out to be 455.63% and the EC50 was 235 nM. For the same molecule, in experiment [2], the “% Activation” value was 262.33% and the EC50 was found to be 464 nM. In experiment [3], the EC50 is 32 nM and the “% Activity at 1 μM (Ieq*)” value was 310%.

Turning to `COC1CCN(c2cc(C(=O)NS(C)(=O)=O)nc3c2c(C(C)C)nn3-c2cccc(C)c2)CC1` [Compound 117, N-(methanesulfonyl)-4-(4-methoxypiperidin-1-yl)-1-(3-methylphenyl)-3-(propan-2-yl)-1H-pyrazolo[3,4-b]pyridine-6-carboxamide], the “% Activation” value is on record as 417.92% in experiment [1] and 281.88% in experiment [2]. In addition, the EC50 in experiment [1] is 200 nM; in experiment [2], 333 nM; in experiment [3], more than 1000 nM. Besides, the “% Activity at 1 μM (Ieq*)” value in experiment [3] is recorded as 81%.

Take `CC(C)c1nn(C2CCCCC2)c2nc(C(=O)NS(C)(=O)=O)cc(-c3cnc(N4CCC(C#N)CC4)nc3)c12` [Compound 119, 4-[2-(4-cyanopiperidin-1-yl)pyrimidin-5-yl]-1-cyclohexyl-N-(methanesulfonyl)-3-(propan-2-yl)-1H-pyrazolo[3,4-b]pyridine-6-carboxamide]: in experiment [1], the “% Activation” value is 389.93% and the EC50 worked out at 331 nM. Further, in experiment [2], the “% Activation” value turned out to be 188.53% and the EC50 was determined as 520 nM. Further, in experiment [3], the EC50 was more than 1000 nM and the “% Activity at 1 μM (Ieq*)” value is on record as 157%.

Regarding `COCCN(CCOC)c1ccc(-c2cc(C(=O)NS(C)(=O)=O)nc3c2c(C(C)C)nn3C2CCCCC2)cn1` [Compound 121, 4-{6-[bis(2-methoxyethyl)amino]pyridin-3-yl}-1-cyclohexyl-N-(methanesulfonyl)-3-(propan-2-yl)-1H-pyrazolo[3,4-b]pyridine-6-carboxamide], the “% Activation” value in experiment [1] is 368.6%; in experiment [2], 159.13%. The values for the EC50 in experiment [1], in experiment [2] and in experiment [3] were 282 nM, 653 nM and 74 nM, respectively. The “% Activity at 1 μM (Ieq*)” value in experiment [3] is given as 206%.

Consider `CC(C)c1nn(-c2cccc(N3CCOCC3)n2)c2nc(C(=O)NS(C)(=O)=O)cc(-c3ccc(N4CCOCC4)cc3)c12` [Compound 128, N-(methanesulfonyl)-4-[4-(morpholin-4-yl)phenyl]-1-[6-(morpholin-4-yl)pyridin-2-yl]-3-(propan-2-yl)-1H-pyrazolo[3,4-b]pyridine-6-carboxamide], for which the “% Activation” value in experiment [1] stood at 529.57%; in experiment [2], 357.47%. For the same molecule, the results for the half-maximal effective concentration (EC50) in experiment [1], in experiment [2] and in experiment [3] were 252 nM, 516 nM and less than 30 nM, respectively. In addition, in experiment [3], the “% Activity at 1 μM (Ieq*)” value was 235%.

The values above are taken from patent publication US10259810B2, “N-sulfonylated pyrazolo[3,4-b]pyridin-6-carboxamides and method of use” (AbbVie S.à.r.l., priority 2015, dated 2019).
